“Also recorded” adds a separate entry of the source.
Legend:
Akt protein [1] = test: Western blotting of Akt protein phosphorylation in insulin-treated HepG2 cells; type: cell-based, human; conditions: PMA 0, 10, 50 or 100 nM or ionomycin 0, 1, 5, 10 or 20 μM, 100 nM insulin, dose-dependent
Method: First, male C57BL/6 mice at 8 weeks were divided into the fasted group wherein the mice were fasted for 16 hours and the refed group wherein the mice were fasted for 16 hours and then fed for 4 hours. Each group was sub-divided into the high fat diet group (HFD) and the normal diet group (chow). The liver cells were extracted from the raised mice by the same manner and under the same conditions as described in Example 1. The extracted liver cells were lysed in a lysis buffer containing phosphatase (Sigma-Aldrich, USA) and protease inhibitor (Sigma-Aldrich, USA). Proteins extracted from 2 to 3 mg of the liver tissue were homogenized by using a tissue homogenizer (TissuLyser, Qiagen, USA) for 1.5 minutes at a frequency of 1/30 sec. The homogenized lysate was centrifuged at 12,000 rpm for 15 minutes and the supernatant was obtained. The amount of the extracted protein was quantified by using a protein assay kit (Bio-Rad Laboratories, USA), and at this time BSA was used as a standard sample. 3 mg of the protein was mixed with 6× loading buffer, followed by electrophoresis using 10% SDS-PAGE gel. The electrophoresed protein was transferred onto a polyvinylidene fluoride (PVDF) membrane by using a transfer buffer at 4° C. with 120 V for 1.5 hours. The PVDF membrane on which the protein was transferred was pretreated with a blocking buffer prepared by mixing 5% skim milk with TBS buffer (TBS-T, pH 7.6) supplemented with Tween 20 for 30 minutes, and the membrane was washed with TBS-T. The washed membrane was added with the antibody against Akt (Cell Signaling Technology, USA), Akt(T308) (Cell Signaling Technology, USA), Akt(S473) (Cell Signaling Technology, USA), FOXO3A (Cell Signaling Technology, USA), FOXO3A(S253) (Cell Signaling Technology, USA), GSK-3β (Cell Signaling Technology, USA) or GSK-3β(S9) (Cell Signaling Technology, USA) protein as a primary antibody, followed by reaction at 4° C. for 12 hours. At this time, the antibody against actin (Santa Cruz Biotechnology, USA) protein was used for the control group. Upon completion of the reaction, the secondary antibody corresponding to the primary antibody was added thereto, followed by reaction at room temperature for 30 minutes. The PVDF membrane was washed with TBS-T buffer three times. The washed PVDF membrane was added with ECL solution (Thermo Scientific, USA), followed by image observation.
To investigate the changes in insulin sensitivity when insulin was added to the fatty liver cell model constructed in vitro, the phosphorylations of those proteins that were involved in insulin signal transduction were examined. PA was added to the human HepG2 cells prepared in Example 3, followed by reaction for 24 hours. […]

[2] = ITC of phospholipid liposomes with calcium; type: binding; conditions: liposome with POPC 80:20, 25° C., unlike POPS
Method: Particularly, a protein solution was prepared by suspending a protein in 10 mM HEPES (pH 7.0). Phospholipid related ligand was titrated in the protein solution at 25° C. by using iTC200 micro calorimetry system (MicroCal Inc., USA), and the generated graph was corrected using Origin software (MicroCal Inc., USA). At this time, the phospholipid related ligand was prepared in the form of liposome by mixing POPC (1-palmitoyl-2-oleoyl-sn-glycero-3-phosphocholin) chloroform solution and POPS (1-palmitoyl-2-oleoyl-sn-glycero-3-phosphoserine), PI(3,4)P2 (1,2-dipalmotoyl-sn-glycero-3-phosphatidylinositol-3,4-[…]), PI(4,5)P2 (1,2-dipalmotoyl-sn-glycero-3-phosphatidylinositol-4,5-trisphosphate) or PI(3,4,5)P3 (1,2-dipalmotoyl-sn-glycero-3-phosphatidylinositol-3,4,5-trisphosphate) at the molar ratio of 80:20. The organic solvent was eliminated. The organic solvent was removed and a single layer lamellar was produced in HEPES (pH 7.0) using phospholipids.

Akt protein [3] = test: Western blot of Akt activity with C2-Akt fusion protein and PI3K co-treated with PTEN or SHIP2; type: cell-based; conditions: cells with C2-Akt fusion protein and PI3K vectors co-treated with PTEN or SHIP2
Method: Particularly, the experiment was performed by the same manner under the same conditions as described in Example 2 except that the vector expressing the C2-Akt fusion protein and the vector expressing PI3K protein were co-treated with PTEN or SHIP2 and the antibody against Akt (Cell Signaling Technology, USA), Akt(T308) (Cell Signaling Technology, USA), Akt(S473) (Cell Signaling Technology, USA), PI3K (Cell Signaling Technology, USA), PTEN (Cell Signaling Technology, USA) or SHIP2 (Upstate Biotechnology, USA) protein was used as the primary antibody.

PH domain of Akt protein = target: T1, PH domain of Akt protein (Homo sapiens, UniProt P31749); test: Protein-lipid binding assay (PIP-strips) with PH domain of Akt protein
T1 construct: His6 (C); made in house; host or cells: E. coli BL21 (DE3), pET28a vector
Method: E. coli BL21 (DE3) cells were transfected with a vector containing the PH domain of Akt protein, and the cells were cultured in 50 Ml of LB medium supplemented with 50 μg/Ml of kanamycin. The culture was performed at 37° C. for 8 hours. Upon completion of the culture, the cells were transferred into a 25° C. agitation incubator. The cells were cultured until OD600 reached 0.6 to 1.0, and then 1 mM IPTG (isopropyl-β-D-1-thiogalactopyranoside) was added thereto. 18 hours after the addition of IPTG, centrifugation was performed at 7,000×g at 4° C. for 10 minutes to obtain cells. Sonication equilibrium buffer (150 mM NaCl, 50 mM Tris-HCl, pH 7.6) was added to the obtained cells. The cells added with the sonication equilibrium buffer were lysed by sonication. The PH domain of Akt protein was purified from the cell lysate by […] using nickel-nitrilotriacetic acid and HiLoad Superdex-200 column (GE Healthcare life science, USA). The purity of the purified protein was examined by SDS-PAGE (sodium dodecyl sulfate polyacrylamide gel electrophoresis).
Particularly, the analysis was performed by using membrane-immobilized lipid strips (PIP-strips, Echelon Biosciences Inc., USA). […]

CHO cells = test: Migration of mCherry-tagged PH or C2 domain to the cell membrane, fluorescence microscopy; type: cell-based
Description: First, the PH domain of Akt1 protein or C2 domain of PKCβ protein was obtained by PCR using the primers consisting of the nucleotide sequences represented by […]. The obtained PCR product was cloned in pmCherry-C1 vector (Takara Clontech, Japan) by the conventional cloning method. CHO cells were transfected with the prepared vector by using lipofectamine according to the manufacturer's protocol. The transfected cells were selected by using blastidicin. Then, mCherry positive cells were confirmed by flow cytometry.
PMA at the concentration of 100 nM, ionomycin at the concentration of 10 μM or insulin at the concentration of 100 nM was added to the cells expressing the PH domain of Akt1 protein or the C2 domain of PKCβ protein and the location of the expressed protein was confirmed by fluorescence microscopy.

CCCCCCCCCCCCCC(=O)O[C@@H]1[C@@H](C)[C@@]2(O)[C@@H](C=C(CO)C[C@]3(O)C(=O)C(C)=C[C@@H]23)[C@@H]2C(C)(C)[C@]12OC(C)=O [PMA, phorbol myristate acetate]
phosphorylation of Akt protein (Akt protein [1]): significantly inhibited

CCCCCCCCCCCCCCCC(=O)OCC(COP(=O)(O)OC1C(O)C(O)C(OP(=O)(O)O)C(OP(=O)(O)O)C1O)OC(=O)CCCCCCCCCCCCCCC (stereo not drawn) [PI(4,5)P2, 1,2-dipalmotoyl-sn-glycero-3-phosphatidylinositol-4,5-trisphosphate]
binding to calcium [2]: high affinity; also recorded: strong binding force

CCCCCCCCCCCCCCCC(=O)OCC(COP(=O)(O)OC1C(O)C(OP(=O)(O)O)C(OP(=O)(O)O)C(OP(=O)(O)O)C1O)OC(=O)CCCCCCCCCCCCCCC (stereo not drawn) [PI(3,4,5)P3, 1,2-dipalmotoyl-sn-glycero-3-phosphatidylinositol-3,4,5-trisphosphate]
binding to calcium [2]: high affinity; also recorded: strong binding force

PTEN: phosphatase and tensin homolog, co-treated
Akt protein activity (Akt protein [3]): reduced

CCCCCCCCCCCCCCCC(=O)OCC(COP(=O)(O)OC1C(O)C(O)C(OP(=O)(O)O)C(OP(=O)(O)O)C1O)OC(=O)CCCCCCCCCCCCCCC (stereo not drawn) [PI(3,4)P2, 1,2-dipalmotoyl-sn-glycero-3-phosphatidylinositol-3,4-triphosphate]
binding to calcium [2]: high affinity; also recorded: strong binding force

C[C@H](CCC(=O)O)C[C@H](C)C[C@H](C)C(=O)/C=C(\O)[C@H](C)C[C@H](C)C/C=C/[C@@H](C)[C@@H](O)[C@@H](C)[C@@H](O)C[C@@H]1CC[C@@](C)([C@H]2CC[C@@](C)([C@@H](C)O)O2)O1 [ionomycin]
phosphorylation of Akt protein (Akt protein [1]): significantly inhibited

B1: PH domain of Akt protein: PH domain of Akt1 protein (SEQ. ID. NO: 13) (protein)
chain: MSDVAIVKEGWLHKRGEYIKTWRPRYFLLKNDGTFIGYKERPQDVDQREAPLNNFSVAQCQLMKTERPRPNTFIIRCLQWTTVIERTFHVETPEEREEWTTAIQTVADGLKKQEEEEMDFRSGSPSDNSGAEEMEVSLAKPKHR
modifications: PH domain of Akt protein
binding to PI(3,4)P2 or PI(3,4,5)P3 (PH domain of Akt protein): bound | migration to the cell membrane (CHO cells; addition of insulin 100 nM): ted to the cell membrane | migration to the cell membrane (CHO cells; increased intracellular calcium concentration (PMA 100 nM, ionomycin 10 μM)): not observed; also recorded: inhibited
